US4173650A, “Cis-2-benzoyl-3-hydroxy-2-alkenonitriles as anti-inflammatory agents” (American Cyanamid Company, priority 1978, dated 1979)
Where two headings read alike, the source gives them in different places.

Tests used:
[1] = test system: Carrageenin-Induced Edema; assay: Carrageenin-induced edema in the rat; assay type: in vivo, rat (Royal Hart, Wistar strain); conditions: by gavage, 5 hours after drug (4 hours after carrageenin challenge); dose not given
Experimental: In determining the acute anti-inflammatory activity of the cis-2-benzoyl-3-hydroxy-2-alkenonitriles of the present invention, Royal Hart, Wistar strain rats, ranging in weight from 80 to 90 grams were used. The rats were fasted overnight prior to dosing but had free access to water. The test compounds were administered in aqueous suspension, by gavage, in a volume of 1.7 ml. per 50 grams of rat [corresponds to hydration volume used by Winter, et al., Proc. Soc. […] The phlogistic agent used was carrageenin prepared as a sterile 1% suspension in 0.9% aqueous sodium chloride for routine testing. A volume of 0.05 ml. was injected through a 26 gauge needle into the plantar tissue of the right hind paw. Measurements were made 5 hours after drug administration (4 hours after carrageenin challenge). Volumes of both the normal and carrageenin inflammed feet were determined. The difference between the two measurements is considered to be the increased edema due to the carrageenin administration. Results are expressed as a C/T efficacy ratio (edema of control animals/edema of treated animals).

[2] = test system: Migration Inhibitory Factor; assay: Migration inhibitory factor in the guinea pig (capillary tube macrophage migration assay, direct MIF assay); assay type: cell-based, guinea pig (male Hartley); conditions: number of tests wherein the percent reversal of inhibition =15%
Text: Rheumatoid arthritis is a chronic inflammatory disease that is characterized by the migration of lymphocytes, macrophages and polymorphonuclear leukocytes to the sites of inflammation. The migration of lymphocytes and macrophages and their multiplication in situ is one reason for the very large increase in size of the normally thin synovial membrane, the membrane that encloses the joint space. The synovial membrane that has been transformed in this manner, slowly grows over the aricular surfaces and causes the destruction of the articular cartilage and other connective tissue structures of the joint. One of the mechanisms for the destruction of articular cartilage by the synovium is believed to be through the release of various hydrolytic enzymes by the resident macrophages which have been immobilized and activated by migration inhibitory factor (MIF). Macrophages stimulated by MIF are termed "activated macrophages" and undergo the following changes: (a) increased glucose oxidation, (b) increased ruffling of plasma membrane and increased spreading of cells, (c) synthesis and secretion of neutral proteases, (d) release of preformed lysosomal enzymes, (e) decreased migration from a capillary tube. […] Drugs that can therefore block the release of MIF by lymphocytes or the activation of macrophages by MIF should be clinically effective in retarding the destructive joint damage which occurs in rheumatoid arthritis. Drugs can be tested as MIF inhibitors by using the capillary tube migration assay as follows.
Male Hartley guinea pigs, weighing between 300 and 600 grams, are injected intraperitoneally with 25 ml Marcal 52 Oil® (Humble Oil). Three to four days later, the guinea pigs are sacrificed by decapitation, the peritoneum opened, and the exudate aspirated into a separatory funnel after the addition of 50 ml of cold Hank's solution. This is repeated two times. The oil phase is discarded and the cell supsension is spun down at 1200 r.p.m. for ten minutes. The cells are resuspended in Hank's solution and spun down at 900 r.p.m. for five minutes. This is repeated two times. Viability of the cells is then determined using trypan blue. In all experiments, viability is greater than 90%. The cell concentration is then adjusted to give a 10% packed cell volume by the addition of the appropriate amount of MEM® (Gibco 109)+15% guinea pig serum. […] To determine the area of cell migration out of the capillary tube onto the chamber surface, the chambers are projected onto a microscope screen, the area traced onto paper, and then measured using a planimeter. […]

[3] = test system: Adjuvant Induced Arthritis; assay: Adjuvant-induced arthritis in the rat; assay type: in vivo, rat (Royal Hart, Wistar strain); conditions: for inhibition in vivo at 50 mg/kg: oral 50 mg./kg.; for inhibition in vivo at 25 mg/kg: oral 25 mg./kg.
Experimental: Groups of three Royal Hart, Wistar strain rats weighing 200±10 g. each were injected intradermally in the right hind paw with Freund's adjuvant (dried human tubercle bacilli in a mineral oil vehicle) at a dose of 2 mg./kg. of body weight. The test compounds were administered orally in a 1.5% starch vehicle at various doses once daily on days 0 to 13 post challenge. Control rats were treated in a similar manner, but given only starch vehicle. On the 14th and 21st day post challenge the diameter of the injected paw was measured by micrometer caliper. The volume of inflamed paws were estimated from these measurements and the effects of each compound are expressed as percent inhibition of swelling as compared to controls. Table II records the results of these tests conducted with representative compounds of this invention and known anti-inflammatory agents. The active compounds of this invention suppress the progression of the arthritis and associated joint deterioration.
Adjuvant-induced experimental polyarthritis is a specific systemic disease of the rat which shares interesting similarities with rheumatoid arthritis. Specifically the histology of the two diseases bears a remarkable resemblence as shown by C. M. Pearson et al., Am. J. Path. 42, 73 (1963). E. M. Glenn, Am. J. Vet. Res. 27, (116), 339 (1966) has classified adjuvant-induced polyarthritis as a crippling and permanent deformity resulting from diffuse connective tissue involvement areound certain susceptible joints in the rat. Zahiri et al, Can. Med. Ass. J., 101, 269 (1969) have shown that the fusiform swelling of the distal joints is associated with edema, congestion and synovitis including pannus formation, all of which precede the ultimate destruction of bone and cartilage. Furthermore, Zahiri et al., indicate that the cartilage destruction in the joint is due to an invasive pannus which originates in the marginal synovium and extends across the articular surface to erode it. […] The most pointed reference showing the relationship between arthritis and joint deterioration is an X-Ray analysis of adjuvant arthritis in the rat by Blackham et al., Agents and Actions 7, 145 (1977). In a similar manner, inhibition of the progress of arthritis in paws of rats treated with the compounds of this invention also lessens associated joint deterioration.

arthritic paw swelling = conditions: cited from earlier work
[4] = 336 h, once daily days 0 to 13, read-out: % Inhibition of Swelling, Day 14
[5] = 504 h, once daily days 0 to 13, read-out: % Inhibition of Swelling, Day 21

CC(=O)Oc1ccccc1C(=O)O [Aspirin, reference compound]
C/T Ratio (edema of control animals/edema of treated animals) [1]: 2.86

C/C(O)=C(\C#N)C(=O)c1cccc(Cl)c1C [Cis-2-(3-chloro-o-toluoyl)-3-hydroxycrotononitrile]
#Actives/Total Tests ([2]; 5×10^-5 M): 3/5 | inhibition in vivo at 50 mg/kg [3, 4]: 61% | inhibition in vivo at 50 mg/kg [3, 5]: 17%

C/C(O)=C(\C#N)C(=O)c1cccc(F)c1 [Cis-2-(m-fluorobenzoyl)-3-hydroxycrotononitrile]
C/T Ratio (edema of control animals/edema of treated animals) [1]: 1.61 | inhibition in vivo at 50 mg/kg [3, 4]: 48% | inhibition in vivo at 50 mg/kg [3, 5]: 37%

C/C(O)=C(\C#N)C(=O)c1ccccc1Cl [Cis-2-(o-chlorobenzoyl)-3-hydroxycrotononitrile]
inhibition in vivo at 50 mg/kg [3, 4]: 39% | inhibition in vivo at 50 mg/kg [3, 5]: 29%

C/C(O)=C(\C#N)C(=O)c1ccccc1F [Cis-2-(o-fluorobenzoyl)-3-hydroxycrotononitrile]
C/T Ratio (edema of control animals/edema of treated animals) [1]: 2.18

C/C(O)=C(\C#N)C(=O)c1ccc(Br)cc1 [Cis-2-(p-bromobenzoyl)-3-hydroxycrotononitrile]
#Actives/Total Tests ([2]; 10 μg./ml.): 2/3

C/C(O)=C(\C#N)C(=O)c1ccc(Cl)cc1 [Cis-2-(p-chlorobenzoyl)-3-hydroxycrotonitrile]
inhibition in vivo at 25 mg/kg [3, 4]: 58% | inhibition in vivo at 25 mg/kg [3, 5]: 15%

C/C(O)=C(\C#N)C(=O)c1ccc(F)cc1 [Cis-2-(p-fluorobenzoyl)-3-hydroxycrotononitrile]
#Actives/Total Tests ([2]; 5×10^-5 M): 4/4 | inhibition in vivo at 25 mg/kg [3, 4]: 65% | inhibition in vivo at 25 mg/kg [3, 5]: 30%

COc1ccccc1C(=O)/C(C#N)=C(/C)O [Cis-3-hydroxy-2-(o-anisoyl)crotononitrile]
C/T Ratio (edema of control animals/edema of treated animals) [1]: 1.30 | #Actives/Total Tests ([2]; 5×10^-5 M): 4/5

COc1ccc(C(=O)/C(C#N)=C(/C)O)cc1 [Cis-3-hydroxy-2-(p-methoxybenzoyl)crotononitrile]
C/T Ratio (edema of control animals/edema of treated animals) [1]: 1.59

C/C(O)=C(\C#N)C(=O)c1ccc(C(F)(F)F)cc1 [Cis-3-hydroxy-2-(α,α,α-trifluoro-p-toluoyl)crontononitril]
C/T Ratio (edema of control animals/edema of treated animals) [1]: 1.97 | inhibition in vivo at 25 mg/kg [3, 4]: 68% | inhibition in vivo at 25 mg/kg [3, 5]: 5%

C/C(O)=C(\C#N)C(=O)c1ccc(C)cc1 [Cis-3-hydroxy-2-p-toluoylcrotononitrile, Cis-3-hydroxy-2-(p-toluoyl)crotonitrile]
C/T Ratio (edema of control animals/edema of treated animals) [1]: 1.41

COc1ccc2c(c1)c(CC(=O)O)c(C)n2C(=O)c1ccc(Cl)cc1 [Indomethacin]
effect on joint and bone deterioration (arthritic paw swelling; S. Wong et al. 1973, G. R. Bobalick et al. 1974): prevent joint and bone deterioration | effect on arthritic paw swelling (arthritic paw swelling; literature): inhibit arthritic paw swelling
